Measured values taken from patent publication US7842324B2 (Senomyx, Inc., priority 2005, dated 2010).

Key:
tasters [1] = experiment: Reduced sugar frosted breakfast cereal sensory evaluation; format: in vivo, human; conditions: for Avgage Sweet Intensity Score: scale 1 to 10
Method: A 100 gram sample of a solid sweetener concentrate composition was prepared from 1.000 g of compound 23 and 99.000 g of 10 D.E. maltodextrin. “DE” i.e. “[…]” is a measure of the degree of depolymerization of the corn starches used to manufacture maltodextrins. Fifty grams of the maltodextrin was placed on the bottom of a clean and dried mortar and the 1.000 gr of compound 23 was added to the maltodextrin and slowly ground and mixed into the maltodextrin. The remaining 50 grams of maltodextrin was added to a planetary mixer with a wire whip attachment (KITCHEN AIDE™ Mixer), then the contents of the mortar were placed into the mixer and the mixer was turned on to a slow speed (setting 3), and allowed to mix for 10 minutes. A rubber spatula was used to scrap the walls and bottom of the bowl, then the mixture was blended on low for another 15 minutes. The 100× diluted solid sweetener concentrate composition was stored in an air tight amber glass container. The contents were mixed in the glass container before taking out aliquots of the dry diluted sweet enhancer.
Using the KITCHEN AIDE™ Mixer with the wire whip attachment, the granulated sugar, powdered sugar, gum arabic, dextrin, and the 1:100 diluted sweetener concentrate composition were mixed at speed 3. Water and the HFCS were placed into a 1000 mL stainless steel cylinder and mixed using a LIGHTNIN™ Mixer at 500 to 650 rpms using a 2.5 inch (6.35 cm) impeller with three straight blades until the HFCS was dissolved (5 minutes). A vortex was created by positioning the impeller blades at a 30 to 45° angle. The dry/sugar/gum dry blend was added to the vortex very slowly and allowed to mix until the sugar dissolved and the gum rehydrated. An additional 10 minute mixing time was allowed after the last of the dry blend was added, to form the frosting. […]
Frosted corn flake cereal samples were evaluated using a rank rating design by tasters. […]

tasters [2] = experiment: Reduced sugar dry beverage mix (strawberry beverage) sensory evaluation; format: in vivo, human; conditions: ⅔ sugared strawberry beverage + 1.3 ppm, scale 1 to 10
Method: 1000.00 g of the finished beverage was formulated. Compound 23 was diluted with maltodextrin (1:100) to form a sweetener concentrate composition prior to addition to the other dry beverage base ingredients. 50 g of the maltodextrin was placed on the bottom of a clean and dried mortar and 1.0000 g of compound 23 was added and slowly ground into the maltodextrin with the pestle. The remaining maltodextrin was added to a planetary mixer with a wire whip attachment (KITCHEN AIDE™ Mixer), and the contents of the mortar were placed into the mixer and the mixer was turned on to a slow speed (setting 3) and allowed to mix for an additional 10 minutes.
The contents of the glass container were re-mixed in the glass container before taking out aliquots of the dry diluted sweet enhancer. Using the KITCHEN AIDE™ Mixer with the wire whip attachment, the granulated ingredients of the beverage base (sugar, acid) were mixed slowly at speed 2 using the wire whip attachment for 3 minutes and 0.13 grams of the 1:100 diluted solid sweetener concentrate composition was added and mixed at speed 3 for 5 minutes. Calcium silicate was added and allowed to mix for another 5 minutes until the silicate was evenly dispersed. The dry flavor and dry color were added last and allowed to mix for another 10 minutes. A plastic spatula was used to scrape the inside of the mixing bowl to ensure complete recovery of the dry beverage base composition.
The water was placed in a stainless steel 3 L cylinder and a LIGHTNIN™ Mixer was set at 500 to 650 rpms using a 2.5 inch (6.35 cm) impeller with three straight blades. This was used to create a vortex in the water. The impeller blades were positioned at a 30 to 45° angle. The dry beverage base (53.525 grams) was slowly added to the vortex of the water and was mixed for an additional 5 minutes until all the sugar and acids had dissolved.
Samples of control sugared strawberry beverages containing sugar at the full level indicated above (50, 66.67, 80, 90, and 100% of full sugar), and the strawberry beverage comprising ⅔ sugar+1.3 ppm compound 23 were given to tasters in randomized order. Tasters used an anchored scale from 1 to 10 (1 being no sweetness, 10 being intense sweetness). Tasters were instructed to hold the beverage in their mouth for at least 5 seconds, expectorate the sample, and evaluate/rank the “peak” of sweetness intensity of their various samples. They were allowed to re-taste and re-position their samples on the physical line scale. Once satisfied with their rankings, they wrote down their code and corresponding rank score.

For `CC(C)CNC(=O)C(C)(C)c1ccc(-c2cncc(C#N)c2)cc1` [Compound 23, 2-(4-(5-cyanopyridin-3-yl)phenyl)-N-isobutyl-2-methylpropanamide], the “sweetness compared with fully sugar frosted cornflake control” value (tasters [1]; 9.6 ppm in frosting) was “almost as much sweetness as the fully sugar frosted cornflake control”, the “Avgage Sweet Intensity Score” value (tasters [1]; ⅔ sugared frosted corn flakes + 6.6 ppm) was 7.5 and the “Avgage Sweet Intensity Score” value (tasters [1]; ⅔ sugared frosted corn flakes + 9.6 ppm) was 7.81. For the same compound, the “Sweet Score from Individual Tastors #1” value (tasters [2]) was 8, the “Sweet Score from Individual Tastors #2” value (tasters [2]) was 7 and the “Sweet Score from Individual Tastors #3” value (tasters [2]) was 7. For the same compound, the “Sweet Score from Individual Tastors #4” value (tasters [2]) was 8, the “Sweet Score from Individual Tastors #5” value (tasters [2]) was 7.5 and the “Sweet Score from Individual Tastors #6” value (tasters [2]) was 7. The “Sweet Score from Individual Tastors #7” value (tasters [2]) was 8, the “Sweet Score from Individual Tastors #8” value (tasters [2]) was 8 and the “Average Scores” value (tasters [2]; mean of eight tasters) was 7.56.
